Results: patent US20060134719A1, “Novel serine protease” (priority 2002, published 2006)
*: point of attachment. AMC = Cc1cc(=O)oc2cc(N*)ccc12; Boc = CC(C)(C)OC(=O)*; OBn = c1ccc(CO*)cc1

Molecular target: T1, purified protein solution (signal-FLAG-ARS-extracellular protein) (Homo sapiens, UniProt Q7Z410, INS90FVSSFQKTELEASCVGCSVLNYRDGNSSVLVHFQ)
T1 construct: made in house; host or cells: HEK293-EBNA
T1 sequence (Q7Z410 with tags, fused parts or gaps INS90FVSSFQKTELEASCVGCSVLNYRDGNSSVLVHFQ): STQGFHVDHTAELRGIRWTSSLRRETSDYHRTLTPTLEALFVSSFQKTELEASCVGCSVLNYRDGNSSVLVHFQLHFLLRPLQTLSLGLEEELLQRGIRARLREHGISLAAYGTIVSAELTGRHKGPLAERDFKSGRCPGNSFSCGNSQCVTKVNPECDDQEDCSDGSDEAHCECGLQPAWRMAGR
T1 sequence (Q7Z410 with tags, fused parts or gaps): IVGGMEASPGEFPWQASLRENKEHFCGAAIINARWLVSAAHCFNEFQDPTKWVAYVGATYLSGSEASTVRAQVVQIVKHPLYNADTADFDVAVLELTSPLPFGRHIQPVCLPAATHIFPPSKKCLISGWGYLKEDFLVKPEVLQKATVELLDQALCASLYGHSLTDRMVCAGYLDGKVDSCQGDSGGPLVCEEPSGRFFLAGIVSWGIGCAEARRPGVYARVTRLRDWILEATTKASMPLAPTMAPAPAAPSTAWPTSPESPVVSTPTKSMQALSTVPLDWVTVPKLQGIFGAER
Assay: Enzyme activity of purified recombinant protein using synthetic peptides
Assay type: biochemical
Conditions: substrate 200 μM or 400 μM, ammonium hydrogen carbonate buffer, 37° C. for one hour; versus buffer control
Protocol: Using a cell expressing the signal-FLAG-ARS-extracellular protein, a recombinant protein secreted into the liquid culture of the cell was extracted and purified. Specifically, the transfected HEK293EBNA cells were incubated by the same method as in Example 7 to about 80% confluence, from which the culture medium was then removed. Instead, a culture medium containing 4% serum was added, for further incubation under conditions of 37° C. and a carbon dioxide concentration of 5% for another 4 days. The culture supernatant was recovered 4 days later; filtered through a 0.22-μm filter (Zartor); and adsorbed on an ANTI-FLAG M2-AGAROSE AFFINITY GEL (Sigma) column equilibrated with TBS buffer by a routine method. Subsequently, about 50 ml of the TBS buffer was used for washing the column. Then, 6 ml of […] glycine hydrochloride solution of pH 2.2 was passed through the column to obtain each 1 ml fraction. To the separated fractions, 100 μl of 1 M Tris-HCl of pH 8 was immediately added to adjust the pH. The individual fractions thus obtained were confirmed by Western blotting using an antibody against the FLAG tag added to the N terminus (mouse anti-FLAG monoclonal antibody M2; Sigma). Specifically, the eluted fractions were electrophoresed on SDS/4% to 20% acrylamide gel (Daiichi Pure Chemicals Co., Ltd.) (under reducing conditions) and then transferred on PVDF membrane (Millipore) using a blotting apparatus. After adding Block Ace (DAINIPPON PHARMACEUTICAL CO., LTD.) for blocking to the transferred PVDF membrane, a biotinylated mouse anti-FLAG monoclonal antibody (M2; Sigma) and horseradish peroxidase-labeled streptoavidin (Amersham Pharmacia) were sequentially reacted. After reaction, it was confirmed that which eluted fractions contained the protein, using ECL Western blotting detection system (Amersham Pharmacia).
Using a synthetic peptides which have the C terminus labeled wit MCA (4-methyl-coumaryl-7-amide) by the same method as in Example 8, the cleavage activity of the enzyme purified in Example 10 was detected. Unless otherwise described, the method described in a paper (Yasuoka, S. et al., Am. J. Respir. Cell Mol Biol., Vol. 16, 300-308, 1997) was used. Specifically, using a synthetic peptides (Peptide Institute, Inc.) which have the C terminus labeled with MCA as substrates, the substrates were diluted with ammonium hydrogen carbonate buffer to become a final concentration of 200 μM or 400 μM in a 96-well plate. After the purified protein solution obtained in Example 10 or the ammonium hydrogen carbonate buffer as a control was added to the substrate solutions, the resulting mixtures were incubated at 37° C. for one hour. Subsequently, the fluorescence of AMC (7-amino-4-methyl-coumarin) released from the synthetic peptide by enzymatic cleavage was measured at a wavelength of 460 nm for measurement, using an excitation wavelength of 390 nm with a fluorescent plate reader (SAFIRE manufactured by TECAN). In FIG. 1, the open bar expresses buffer control, while the solid bar expresses the case of using purified protein solution. The first bar represents the case of using Boc-Glu(OBzl)-Ala-Arg-MCA as a substrate; the second bar represents the case of using Boc-Phe-Ser-Arg-MCA as a substrate; the third bar represents the case of using Boc-Leu-Ser-Thr-Arg-MCA as a substrate; the fourth bar represents the case of using Boc-Gln-Arg-Arg-MCA as a substrate; the fifth bar represents the case of using Suc-Ala-Ala-Pro-Phe-MCA as a substrate; the sixth bar represents the case of using Suc-Ala-Pro-Ala-MCA as a substrate; the seventh bar represents the case of using Boc-Glu-Lys-Lys-MCA as a substrate; the eighth bar represents the case of using Boc-Leu-Lys-Arg-MCA as a substrate; the ninth bar represents the case of using Boc-Leu-Gly-Arg-MCA as a substrate; and the tenth bar represents the case of using Boc-Asp(OBzl)-Pro-Arg-MCA as a substrate.

Row | Substance | cleavage of synthetic peptide by purified protein solution (fluorescence of released AMC)
1 | Boc-Gln-Arg-Arg-{AMC} | showed the cleavage activities
2 | Boc-Phe-Ser-Arg-{AMC} | showed the cleavage activities
3 | Boc-Glu(OBn)-Ala-Arg-{AMC} | showed the cleavage activities
